Source: patent US11207310B2 (PRILENIA NEUROTHERAPEUTICS LTD., priority 2016, dated 2021)
Like-named read-outs stand apart in the source and are kept apart here.

Assays:
patients with HD [1] = tested on: patients with HD
Experimental: The independence scale of the UHDRS is a rating scale where the patient's degree of independence was given in percentage, from 10% (tube fed, total bed care) to 100% (no special care needed). […] Patients with a UHDRS-IS score >90% at the screening visit were not eligible for the study.
It is a rating scale where the patient's degree of independence is given in percentage, from 10% (tube fed, total bed care) to 100% (no special care needed). […] The scale was assessed at screening, baseline, weeks 4, 12, 20, 26/Early Termination, 28 and 52/Early Termination.

patients with HD [2] = tested on: patients with HD; remark: listed apart in the source
Excerpt: There are six basic ADLs: eating, bathing, dressing, toileting, transferring (functional mobility) and continence. ADL is scored as follows: a patient requiring total care=0, a patient able to carry out gross tasks only=1, a patient having minimal impairment=2, a patient with no impairment (normal)=3.
The TFC scale of the UHDRS is a standardized scale used to assess 5 functional domains associated with disability shown below (occupation, finances, domestic chores (e.g. laundry, washing dishes), activities of daily living, and care level). The TFC score has a range of 0-13 and is a well-established endpoint for trials aiming disease progression. […] The TFC score is accepted by regulators and often considered the most widely accepted tool for disease procession in HD patients. Additionally, TFC is considered the gold standard for measuring HD rate of functional decline. […] The floor and ceiling effects make TFC scores more sensitive to change in early stage HD than in late stage HD.
Activities of Daily Living (ADL): 0=total care, 1=gross tasks only, 2=minimal impairment, 3=normal.

[3] = 45 mg bid, Week 26, Stage 1 BL TFC 11-13
[4] = 45 mg bid, Week 52, Stage 1 BL TFC 11-13
[5] = 67.5 mg bid, Week 26, Stage 1 BL TFC 11-13
[6] = 67.5 mg bid, Week 52, Stage 1 BL TFC 11-13
[7] = 90 mg bid, Week 26, Stage 1 BL TFC 11-13
[8] = 90 mg bid, Week 52, Stage 1 BL TFC 11-13

SMILES: CCCN1CCC(c2cccc(S(C)(=O)=O)c2)CC1 [pridopidine, 4-[3-(methylsulfonyl)phenyl]-1-propyl-piperidine]
- Change from baseline in UHDRS Independence Scale, Δ to placebo (patients with HD [1]; 45 mg bid, Week 26, ALL): 1.79
- UHDRS Independence Scale, change from baseline, Δ to placebo (patients with HD [1]; 45 mg bid, Week 26, BL TFC<7, p value 0.8796): 0.3
- UHDRS Independence Scale, change from baseline, Wk 26 Δ to placebo (patients with HD [1]; 45 mg bid, Week 26, BL TFC≥7, p value 0.0128): 2.22
- Change from baseline in UHDRS Independence Scale, Δ to placebo (patients with HD [1]; [3]): 4.94
- Change from baseline in UHDRS Independence Scale, Δ to placebo (patients with HD [1]; 45 mg bid, Week 52, ALL): 0.86
- UHDRS Independence Scale, change from baseline, Δ to placebo (patients with HD [1]; 45 mg bid, Week 52, BL TFC<7, p value 0.5799): −1.85
- UHDRS Independence Scale, change from baseline, Δ to placebo (patients with HD [1]; 45 mg bid, Week 52, BL TFC≥7, p value 0.1047): 1.99
- Change from baseline in UHDRS Independence Scale, Δ to placebo (patients with HD [1]; [4]): 3.05
- Change from baseline in UHDRS Independence Scale, Δ to placebo (patients with HD [1]; 67.5 mg bid, Week 26, ALL): 0.3
- UHDRS Independence Scale, change from baseline, Δ to placebo (patients with HD [1]; 67.5 mg bid, Week 26, BL TFC<7, p value 0.8027): −0.44
- UHDRS Independence Scale, change from baseline, Wk 26 Δ to placebo (patients with HD [1]; 67.5 mg bid, Week 26, BL TFC≥7, p value 0.2755): 0.99
- Change from baseline in UHDRS Independence Scale, Δ to placebo (patients with HD [1]; [5]): 2.27
- Change from baseline in UHDRS Independence Scale, Δ to placebo (patients with HD [1]; 67.5 mg bid, Week 52, ALL): 0.25
- UHDRS Independence Scale, change from baseline, Δ to placebo (patients with HD [1]; 67.5 mg bid, Week 52, BL TFC<7, p value 0.2415): −3.46
- UHDRS Independence Scale, change from baseline, Δ to placebo (patients with HD [1]; 67.5 mg bid, Week 52, BL TFC≥7, p value 0.0788): 2.22
- Change from baseline in UHDRS Independence Scale, Δ to placebo (patients with HD [1]; [6]): 0.91
- Change from baseline in UHDRS Independence Scale, Δ to placebo (patients with HD [1]; 90 mg bid, Week 26, ALL): 0.78
- UHDRS Independence Scale, change from baseline, Δ to placebo (patients with HD [1]; 90 mg bid, Week 26, BL TFC<7, p value 0.9116): 0.2
- UHDRS Independence Scale, change from baseline, Wk 26 Δ to placebo (patients with HD [1]; 90 mg bid, Week 26, BL TFC≥7, p value 0.0949): 1.48
- Change from baseline in UHDRS Independence Scale, Δ to placebo (patients with HD [1]; [7]): 1.73
- Change from baseline in UHDRS Independence Scale, Δ to placebo (patients with HD [1]; 90 mg bid, Week 52, ALL): −0.07
- UHDRS Independence Scale, change from baseline, Δ to placebo (patients with HD [1]; 90 mg bid, Week 52, BL TFC<7, p value 0.0779): −5.25
- UHDRS Independence Scale, change from baseline, Δ to placebo (patients with HD [1]; 90 mg bid, Week 52, BL TFC≥7, p value 0.0228): 2.79
- Change from baseline in UHDRS Independence Scale, Δ to placebo (patients with HD [1]; [8]): 1.16
- Change from baseline in UHDRS Independence Scale, Δ to placebo (patients with HD [1]; 112.5 mg bid, Week 26, ALL): 1.41
- UHDRS Independence Scale, change from baseline, Δ to placebo (patients with HD [1]; 112.5 mg bid, Week 26, BL TFC<7, p value 0.3578): 1.65
- UHDRS Independence Scale, change from baseline, Wk 26 Δ to placebo (patients with HD [1]; 112.5 mg bid, Week 26, BL TFC≥7, p value 0.0919): 1.51
- Change from baseline in UHDRS Independence Scale, Δ to placebo (patients with HD [1]; 112.5 mg bid, Week 26, Stage 1 BL TFC 11-13): 2.38
- Change from baseline in UHDRS Independence Scale, Δ to placebo (patients with HD [1]; 112.5 mg bid, Week 52, ALL): 0.18
- UHDRS Independence Scale, change from baseline, Δ to placebo (patients with HD [1]; 112.5 mg bid, Week 52, BL TFC<7, p value 0.8613): −0.52
- UHDRS Independence Scale, change from baseline, Δ to placebo (patients with HD [1]; 112.5 mg bid, Week 52, BL TFC≥7, p value 0.7301): 0.44
- Change from baseline in UHDRS Independence Scale, Δ to placebo (patients with HD [1]; 112.5 mg bid, Week 52, Stage 1 BL TFC 11-13): −1.61
- change from baseline in the UHDRS-IS (patients with HD [1]; any treatment group, week 52): not statistically significant in any treatment group
- Change from baseline in UHDRS TFC ADL, Δ to Placebo (patients with HD [2]; 45 mg bid, Week 26, ALL): 0.12
- UHDRS TFC ADL, change from baseline, Δ to placebo (patients with HD [2]; 45 mg bid, Week 26, BL TFC<7, p value 0.3596): −0.19
- UHDRS TFC ADL, change from baseline, Δ to placebo (patients with HD [2]; 45 mg bid, Week 26, BL TFC≥7, p value 0.0176): 0.24
- Change from baseline in UHDRS TFC ADL, Δ to Placebo (patients with HD [2]; [3]): 0.65
- Change from baseline in UHDRS TFC ADL, Δ to Placebo (patients with HD [2]; 45 mg bid, Week 52, ALL): 0.14
- UHDRS TFC ADL, change from baseline, Δ to placebo (patients with HD [2]; 45 mg bid, Week 52, BL TFC<7, p value 0.178): −0.33
- UHDRS TFC ADL, change from baseline, Wk 52 Δ to placebo (patients with HD [2]; 45 mg bid, Week 52, BL TFC≥7, p value 0.0019): 0.35
- Change from baseline in UHDRS TFC ADL, Δ to Placebo (patients with HD [2]; [4]): 0.62
- Change from baseline in UHDRS TFC ADL, Δ to Placebo (patients with HD [2]; 45 mg bid, Week 52, Stage 2 BL TFC 7-10): 0.27
- Change from baseline in UHDRS TFC ADL, Δ to Placebo (patients with HD [2]; 67.5 mg bid, Week 26, ALL): 0.09
- UHDRS TFC ADL, change from baseline, Δ to placebo (patients with HD [2]; 67.5 mg bid, Week 26, BL TFC<7, p value 0.8518): −0.04
- UHDRS TFC ADL, change from baseline, Δ to placebo (patients with HD [2]; 67.5 mg bid, Week 26, BL TFC≥7, p value 0.1132): 0.16
- Change from baseline in UHDRS TFC ADL, Δ to Placebo (patients with HD [2]; [5]): 0.34
- Change from baseline in UHDRS TFC ADL, Δ to Placebo (patients with HD [2]; 67.5 mg bid, Week 52, ALL): 0.03
- UHDRS TFC ADL, change from baseline, Δ to placebo (patients with HD [2]; 67.5 mg bid, Week 52, BL TFC<7, p value 0.0671): −0.4
- UHDRS TFC ADL, change from baseline, Wk 52 Δ to placebo (patients with HD [2]; 67.5 mg bid, Week 52, BL TFC≥7, p value 0.0598): 0.22
- Change from baseline in UHDRS TFC ADL, Δ to Placebo (patients with HD [2]; [6]): 0.21
- Change from baseline in UHDRS TFC ADL, Δ to Placebo (patients with HD [2]; 67.5 mg bid, Week 52, Stage 2 BL TFC 7-10): 0.31
- Change from baseline in UHDRS TFC ADL, Δ to Placebo (patients with HD [2]; 90 mg bid, Week 26, ALL): 0.14
- UHDRS TFC ADL, change from baseline, Δ to placebo (patients with HD [2]; 90 mg bid, Week 26, BL TFC<7, p value 0.3507): 0.18
- UHDRS TFC ADL, change from baseline, Δ to placebo (patients with HD [2]; 90 mg bid, Week 26, BL TFC≥7, p value 0.0526): 0.19
- Change from baseline in UHDRS TFC ADL, Δ to Placebo (patients with HD [2]; [7]): 0.58
- Change from baseline in UHDRS TFC ADL, Δ to Placebo (patients with HD [2]; 90 mg bid, Week 52, ALL): −0.01
- UHDRS TFC ADL, change from baseline, Δ to placebo (patients with HD [2]; 90 mg bid, Week 52, BL TFC<7, p value 0.073): −0.39
- UHDRS TFC ADL, change from baseline, Wk 52 Δ to placebo (patients with HD [2]; 90 mg bid, Week 52, BL TFC≥7, p value 0.0545): 0.21
- Change from baseline in UHDRS TFC ADL, Δ to Placebo (patients with HD [2]; [8]): 0.42
